Measurements: ChEMBL document CHEMBL1821695, “Tetrazine-trans-cyclooctene ligation for the rapid construction of integrin αvβ₃ targeted PET tracer based on a cyclic RGD peptide” (Bioorg Med Chem Lett, 2011)

How the values were obtained:
[1] = Chemical stability of the compound in phosphate buffer saline in presence of 5% EtOH after 6 hrs by Radio-HPLC analysis; format: physicochemical; conditions: phosphate buffered saline with 5% EtOH; read-out: Stability
[2] = test system: Mus musculus; test: Biodistribution in tumor of athymic nude mouse bearing U87MG cells at 3.7 MBq, iv after 0.5 hrs by micro PET scan method; format: ADME, organism-based, Neoplasm, U-87MG ATCC; conditions: in vivo
[3] = test system: Mus musculus; test: Biodistribution in tumor of athymic nude mouse bearing U87MG cells at 3.7 MBq, iv after 1 hr by micro PET scan method; format: ADME, organism-based, Neoplasm, U-87MG ATCC; conditions: in vivo
[4] = test system: Mus musculus; test: Biodistribution in tumor of athymic nude mouse bearing U87MG cells at 3.7 MBq, iv after 2 hrs by micro PET scan method; format: ADME, organism-based, Neoplasm, U-87MG ATCC; conditions: in vivo
[5] = test system: Mus musculus; test: Biodistribution in tumor of athymic nude mouse bearing U87MG cells at 3.7 MBq, iv after 4 hrs by micro PET scan method; format: ADME, organism-based, Neoplasm, U-87MG ATCC; conditions: in vivo
[6] = test system: Mus musculus; test: Biodistribution in abdomen of athymic nude mouse bearing U87MG cells at 3.7 MBq, iv upto 4 hrs postinjection by micro PET scan method; format: ADME, organism-based, U-87MG ATCC; conditions: in vivo
[7] = test system: Mus musculus; test: Biodistribution in tumor of athymic nude mouse bearing U87MG cells after 0.5 hrs co-injecting with 10 mg/kg of c(RGDyK) by micro PET scan method; format: ADME, organism-based, Neoplasm, U-87MG ATCC; set-up: dose 10 mg/kg; conditions: in vivo
[8] = test system: Mus musculus; test: Biodistribution in tumor of athymic nude mouse bearing U87MG cells after 1 hr co-injecting with 10 mg/kg of c(RGDyK) by micro PET scan method; format: ADME, organism-based, Neoplasm, U-87MG ATCC; set-up: dose 10 mg/kg; conditions: in vivo
[9] = test system: Mus musculus; test: Biodistribution in tumor of athymic nude mouse bearing U87MG cells after 2 hrs co-injecting with 10 mg/kg of c(RGDyK) by micro PET scan method; format: ADME, organism-based, Neoplasm, U-87MG ATCC; set-up: dose 10 mg/kg; conditions: in vivo
[10] = test system: Mus musculus; test: Biodistribution in tumor of athymic nude mouse bearing U87MG cells after 4 hrs co-injecting with 10 mg/kg of c(RGDyK) by micro PET scan method; format: ADME, organism-based, Neoplasm, U-87MG ATCC; set-up: dose 10 mg/kg; conditions: in vivo
[11] = molecular target: Integrin alpha-V/beta-3 (Homo sapiens) (UniProt P05106+P06756); test: Displacement of [125]I-echistatin from alphaVbeta3 integrin expressed in human U87MG cells by competitive binding assay; format: cell-based; conditions: U-87MG ATCC

Row | Compound | remaining at 6 h [1] [%] | Drug uptake [2] [% ID/g] | Drug uptake [3] [% ID/g] | Drug uptake [4] [% ID/g] | Drug uptake [5] [% ID/g] | Drug uptake [6] | Drug uptake [7] [% ID/g] | Drug uptake [8] [% ID/g] | Drug uptake [9] [% ID/g] | Drug uptake [10] [% ID/g] | Activity [11]
1 | N=C(N)NCCC[C@H]1NC(=O)CNC(=O)[C@@H](CC(=O)O)NC(=O)[C@H](Cc2ccc(O)cc2)NC(=O)[C@@H](CCCCNC(=O)CCCC(=O)Nc2ccc(C3=NN=C(c4ccccn4)[C@@H]4CCC[C@@H](OCC[18F])CC[C@@H]34)nc2)NC1=O | > 95 | 4.6 | 4.4 | 4.2 | 2.7 | Active | 1.4 | 1 | 0.6 | 0.4 | 
2 | N=C(N)NCCC[C@H]1NC(=O)CNC(=O)[C@@H](CC(=O)O)NC(=O)[C@H](Cc2ccc(O)cc2)NC(=O)[C@@H](CCCCNC(=O)CCCC(=O)Nc2ccc(C3=NN=C(c4ccccn4)[C@@H]4CCC[C@@H](OCCF)CC[C@@H]34)nc2)NC1=O |  |  |  |  |  |  |  |  |  |  | Dose-dependent effect
3 | N=C(N)NCCC[C@H]1NC(=O)CNC(=O)[C@@H](CC(=O)O)NC(=O)[C@H](Cc2ccc(O)cc2)NC(=O)[C@@H](CCCCN)NC1=O |  |  |  |  |  |  |  |  |  |  | Dose-dependent effect
